≈ marks a conversion by molar mass, not a printed value. Structures can show the parent of a compound that is named as a salt. Where two headings read alike, the source gives them in different places.
Tests used:
[1] = target: dopamine receptors (3H-dopamine sites); assay: Receptor Binding Assay: stereospecific binding of 3H-dopamine to calf caudate membranes; conditions: displacement of 5nM 3H-dopamine; calf caudate membrane homogenate; 37° C., 15 minutes
Description: (§1) The procedure for this assay is as follows:
(§2) Calf caudate nuclei were dissected from freshly obtained brains and stored frozen at -76° C.
(§3) Test compounds were added as 20 μl aliquots from stock solutions prepared in absolute ethanol or 0.1% ascorbic acid.
(§4) Immediately following all incubations, proteins were recovered on Whatman GF/B glass fiber filters under reduced pressure. Trapped membranes were solubilized off the filters using 1 ml NCS tissue solubilizer (Amersham/Searle Corp.) at 50° C. for 1 hour. Then, pH was adjusted by adding 0.1 ml glacial acetic acid, 10 ml PCS (Amersham/Searle) added and samples analyzed for membrane-bound radioactivity using a Mark II liquid scintillation counter (Searle Analytical, Inc.).
(§5) IC50 values were determined from log-probit plots using 4-6 concentrations of each compound.
(§6) There as two indications from the assay data as to whether a compound is a probable neuroleptic. Firstly, it must be a dopamine antagonist. […] In other words, it must have a high ^3 H-DA/^3 H-HALO, IC50 ratio.

[2] = target: T1, dopamine receptors (3H-Haloperidol sites) (Bos taurus, UniProt P20288); conditions: for antagonist ratios: in words, compared with known neuroleptics
Description: as §1, §2, §3, §4, §5, §6

[3] = target: T1, dopamine receptors (3H-Haloperidol sites); assay: biochemical
Description: as §1, §2, §3, §4, §5, §6

[4] = tested on: Escherialla coli ATCC 8739; assay: Anti-bacterial assay against aerobic bacteria (serial dilution in nutrient broth); format: cell-based; conditions: no growth of organism; aerobic incubation 20-24 hr. at 37° C.; tested at 100, 10, 1, 0.1 mcgm per ml; read-out: active (minimum concentration at which a compound is active)
Description: Evidence of the anti-bacterial utility of the instant compounds vis-a-vis aerobic bacteria is provided by the following standardized test. Nutrient broth (manufactured by Baltimore Biological Laboratories) is prepared by recommended by the manufacturer, sterilized, and inoculated with Escherialla coli ATCC 8739 q.s. one million cells per ml, determined spectrophotometrically. Meanwhile, compound is heated in sterile distilled water at a concentration of 1000 mcgm per ml for 20 minutes at 80° C. This compound preparation is serially diluted and mixed with sufficient inoculated medium to afford concentrations of 100, 10, 1, and 0.1 mcgm of compound per ml. The mixtures thus obtained are incubated aerobically for 20-24 hr. at 37° C. and then examined grossly for growth of the organism. Controls are provided by concurrent incubations identical with the above except that (1) reference standards (4.3, 0.43, 0.043, and 0.0043 mcgm per ml of streptomycin sulfate and 6667, 667, 67, and 7 units of potassium penicillin G) are substituted for compound and (2) neither compound nor reference standard is present. Compounds are considered active if, at the maximum concentrations tested, no growth of organism is observed and no aberrancy is apparent in respect of the controls. Potency is expressed as the minimum concentration at which a compound is active.

T1 sequence (P20288 whole entry): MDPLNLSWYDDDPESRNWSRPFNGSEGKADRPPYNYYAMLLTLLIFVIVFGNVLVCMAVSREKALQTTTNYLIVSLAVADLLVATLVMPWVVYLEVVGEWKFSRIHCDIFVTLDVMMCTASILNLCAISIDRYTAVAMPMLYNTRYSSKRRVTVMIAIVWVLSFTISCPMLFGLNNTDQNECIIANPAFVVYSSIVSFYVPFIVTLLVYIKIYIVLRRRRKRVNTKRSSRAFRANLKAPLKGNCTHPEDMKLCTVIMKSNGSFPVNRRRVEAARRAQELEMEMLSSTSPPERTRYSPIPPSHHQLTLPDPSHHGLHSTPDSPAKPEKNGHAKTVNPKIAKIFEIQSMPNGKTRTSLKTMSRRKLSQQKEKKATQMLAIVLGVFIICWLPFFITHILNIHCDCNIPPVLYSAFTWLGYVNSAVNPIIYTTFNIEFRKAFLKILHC

Row | IC50 [1] [µM] | Ratio (^3 H-DA/^3 H-HALO IC50 ratio) [2] | IC50 [3] [µM] | MIC [4] [µg/mL] | SMILES | antagonist ratios [2] | Ratio (^3 H-DA/^3 H-HALO IC50 ratio) ([2]; IC50 3H-dopamine / IC50 3H-Haloperidol, high ratio indicates dopamine antagonist)
1 | 20 | 31 | 0.65 | 100 | CN(C)CCc1c(-c2ccccc2)sc2ccc(Cl)cc12 [5-chloro-2-phenylbenzo[b]thiophene-3-N,N-dimethylethanamine hydrochloride] | comparable to clozapine and chloropromazine | 
2 | 48 | 137 | 0.35 |  | CN(C)CCCc1c(-c2ccccc2)sc2ccc(Cl)cc12 [5-chloro-2-phenylbenzo[b]thiophene-3-N,N-dimethylpropanamine hydrochloride] | comparable to clozapine and chloropromazine | 
3 |  |  |  | 10 | Cl.NCCc1c(-c2ccccc2)sc2ccc(Cl)cc12 [5-chloro-2-phenylbenzo[b]thiophene-3-ethanamine hydrochloride] |  | 

Continued, compound first:

Row | SMILES | IC50 [1] [µM] | Ratio (^3 H-DA/^3 H-HALO IC50 ratio) [2] | IC50 [3] [µM] | MIC [4] [µg/mL] | antagonist ratios [2] | Ratio (^3 H-DA/^3 H-HALO IC50 ratio) ([2]; IC50 3H-dopamine / IC50 3H-Haloperidol, high ratio indicates dopamine antagonist)
4 | CCN(CC)CCc1c(-c2ccccc2)sc2ccc(Cl)cc12 [5-chloro-2-phenylbenzo[b]thiophene-3-N,N-diethylethanamine hydrochloride] | 6 | 50 | 0.12 |  | comparable to clozapine and chloropromazine | 
5 | Cl.Clc1ccc2sc(-c3ccccc3)c(CCN3CCCC3)c2c1 [1[2-(5-chloro-2-phenylbenzo[b]thiophen-3-yl)ethyl]pyrrolidine hydrochloride] | 48 |  | 0.65 |  | comparable to clozapine and chloropromazine | 74
6 | OCCN1CCN(Cc2c(-c3ccccc3)sc3ccc(Cl)cc23)CC1 [1-[(5-chloro-2-phenylbenzo[b]thiophen-3-yl)methyl]-4-ethanol piperazine dihydrochloride] |  |  |  | 100 |  | 
7 | CN1CCN(CCCc2c(-c3ccccc3)sc3ccc(Cl)cc23)CC1.Cl.Cl [1-[3-(5-chloro-2-phenylbenzo[b]thiophen-3-yl)propyl]-4-methylpiperazine dihydrochloride] |  |  |  | 100 |  | 
8 | CN(C)CCc1c(-c2ccccc2)sc2ccccc12 [2-phenylbenzo[b]thiophene-3-N,N-dimethylethanamine hydrochloride] | 12 | 21 | 0.62 |  | comparable to clozapine and chloropromazine | 
9 | CN1CCN(CCc2c(-c3ccccc3)sc3ccc(Cl)cc23)CC1 [1-[3-(5-chloro-2-phenylbenzo[b]thiophen-3-yl)ethyl]-4-methylpiperazine dihydrochoride] |  |  |  | 10 (≈ 27 µM) |  | 

— patent publication US4137414A, “5-Substituted-2-phenylbenzo[b]thiophene-3-alkylamines and related compounds” (G. D. Searle & Co., priority 1977, dated 1979)
